Experiments:
[1] = tested on: gastrointestinal mucosa (stomach); assay: Ulcerogenic studies, fasted rat model; format: in vivo; settings: 20 mg/kg p.o., 4 h after dose, UI = area of ulcer/area of stomach × 100
Method: The animals were categorized into 6 groups, each has 5 animals. Group 1 was control and given 0.5% carboxymethyl cellulose (CMC) suspension. […] The prodrugs 5a–c (20 mg/kg p.o.) were given to Groups III–V, respectively. Food and water was removed from animal cages 24 h before starting the experiments. After 4 h administration of dose, the animal′s stomach was removed by sacrificing the animal. Stomach was kept on saline soaked filter paper for inspection. The stomach was opened along larger curvature and cleaned with distilled water. The mucous was removed and the area of ulcers and stomachs were noted.
Following formula was used for calculation of Ulcer index (UI); (2) UI=Area of Ulcer/Area of Stomach×100

[2] = tested on: platelet aggregation of rat platelet rich plasma induced by ADP or collagen; assay: Ex vivo antiplatelet aggregation activity; format: in vivo, Sprague-Dawley (SD) rats; settings: 100 mg/kg orally, blood 90 min after dosing, ADP 1.3 µmol/L or collagen 32.8 µg/mL; ASA 50 mg/kg positive control
Method: The antiplatelet activity of synthesized mutual prodrugs 5a–c was investigated by following the already reported method with some modifications. Male Sprague-Dawley (SD) rats weighing 320–350 g were used after overnight fasting. Rats were orally administered via gastric tube 100 mg/kg of prodrugs solution or 50 mg/kg of acetyl salicylic acid (ASA) suspended in 0.5% carboxymethyl cellulose (CMC) solution. Blood was collected 90 min after sample administration and platelet-rich plasma (PRP) was prepared by centrifugation of blood at 120× g for 15 min and further centrifuged at 850× g for 15 min to prepare platelet-poor plasma (PPP). Platelet aggregation was induced by 32.8 µg/mL of collagen or 1.3 µmol/L of adenosine diphosphate (ADP) in 300 µL of PRP. The PRP (300 µL) was incubated at 37 °C for 2 min in the aggregometer with stirring at 1000 rpm and then stimulated with ADP, collagen, epinephrine and A23187. The changes in light transmission were recorded for 5 min after stimulation. The synthesized mutual prodrugs 5a–c were added to the platelet suspension 3 min before the addition of the aggregating agents. The extent of inhibition of platelet aggregation is expressed as percent inhibition (X) using the following formula: (3) X=((A−B)/A)×100 where A = maximal aggregation of the control; and B = maximal aggregation of sample-treated PRP.

[3] = tested on: formalin induced licking in mice; assay: Formalin induced licking in mice; format: in vivo; settings: 20 mg/kg p.o.; for Lickings Time, Mean ± SEM: formalin 2.5%, observed 30 min; for Percentage inhibition of licking time: vs control
From the text: Formalin induced licking in mice was also used to determine analgesic activity of prodrugs 5a–c for further verification. The animals were distributed in to five groups having five mice in each group.

[4] = tested on: egg albumin induced paw edema in mice; assay: Egg albumin induced inflammation (paw edema) in mice; format: in vivo; settings: 20 mg/kg p.o.
Method: Anti-inflammatory potential of synthesized prodrugs 5a–c against egg albumin induced inflammation was also determined for further verification by following the previously reported method. The animals were divided into five groups, each group having five animals. The animals were kept on fasting for 24 h before the beginning of the experiment.

[5] = tested on: carrageenan induced paw edema in mice; assay: Carrageenan induced paw edema in mice; format: in vivo; settings: 20 mg/kg p.o.; for Inflammation at 1 h (paw thickness), Mean ± SEM / Percent inhibition of paw edema at 1 h: 1 h after carrageenan; for Percent inhibition of paw edema at 1 h / Percent inhibition of paw edema at 2 h / Percent inhibition of paw edema at 3 h / Percent inhibition of paw edema at 4 h: vs control; for Inflammation at 2 h (paw thickness), Mean ± SEM / Percent inhibition of paw edema at 2 h: 2 h after carrageenan; for Inflammation at 3 h (paw thickness), Mean ± SEM / Percent inhibition of paw edema at 3 h: 3 h after carrageenan; for Inflammation at 4 h (paw thickness), Mean ± SEM / Percent inhibition of paw edema at 4 h: 4 h after carrageenan
Method: Anti-inflammatory activity of mutual prodrugs 5a–c was determined by following the already reported method by slight modification against carrageenan induced paw edema in mice. The animals were distributed into 5 groups each having five mice. The mice used for the experiment were kept on fasting for 24 h before the starting of experiment. […] The paw volume was measured at 0, 1, 2, 3 and 4 h after the administration of carrageenan by using vernier caliper. (1) Percent inhibition (%) = 100 (1−X/Y) where X = mean increase in paw thickness of treated mice; and Y = mean increase in paw thickness of control mice.

[6] = tested on: yeast induced pyrexia in mice; assay: Yeast induced pyrexia in mice; format: in vivo; settings: for Temperature 1 h, Mean ± SEM / Temperature 2 h, Mean ± SEM / Temperature 3 h, Mean ± SEM: 20 mg/kg p.o.; for Temperature 1 h, Mean ± SEM: 1 h after drug administration; for Temperature 2 h, Mean ± SEM: 2 h after drug administration; for Temperature 3 h, Mean ± SEM: 3 h after drug administration; for Temperature After 24 h of Induction, Mean ± SEM: rectal temperature after yeast, before drug; for Temperature before Induction, Mean ± SEM: rectal temperature, baseline before yeast
Method: Antipyretic activity of prodrugs 5a–c was evaluated against yeast induced pyrexia in mice according to Sakande et al., reported method. Aqueous suspension of brewer′s yeast (20% in distilled water) […] was given subcutaneous to mice. […] Only, those animals were further used in which the pyrexia had been induced. The animals were divided in to five groups having five mice in each group. […] Then animals were treated as described earlier with control, standard and prodrugs 5a–c. Rectal temperature of animals was recorded at 1, 2, 3 and 4 h after drug administration.

[7] = tested on: acetic acid induced writhing in mice; assay: Acetic acid induced writhing in mice; format: in vivo; settings: 20 mg/kg p.o.; for No. of Writhing, Mean ± SEM: 0.6% acetic acid, counted up to 15 min; for Percentage inhibition of writhing: vs control
Method: Koster et al., reported method was adopted for the determination of analgesic activity of the mutual prodrugs 5a–c. The mice were divided in to five groups each group consists of five animals. […] For induction of writhings, acetic acid solution (0.6% in normal saline) was given to every mouse post 30 min of treatment. After 5 min of injection of this solution, the number of writhings was counted up to 15 min.

Compound	Lickings Time, Mean ± SEM [3]	Percentage inhibition of licking time [3]	Inflammation at 1 h (paw thickness), Mean ± SEM [5]	Percent inhibition of paw edema at 1 h [5]	Inflammation at 2 h (paw thickness), Mean ± SEM [5]	Percent inhibition of paw edema at 2 h [5]	Inflammation at 3 h (paw thickness), Mean ± SEM [5]	Percent inhibition of paw edema at 3 h [5]	Inflammation at 4 h (paw thickness), Mean ± SEM [5]	Percent inhibition of paw edema at 4 h [5]	Temperature 1 h, Mean ± SEM [6]	Temperature 2 h, Mean ± SEM [6]	Temperature 3 h, Mean ± SEM [6]	Temperature After 24 h of Induction, Mean ± SEM [6]	Temperature before Induction, Mean ± SEM [6]	No. of Writhing, Mean ± SEM [7]	Percentage inhibition of writhing [7]	other results
CC(C)Cc1ccc([C@H](C)C(=O)OCC(=O)Oc2ccc3ccc(=O)oc3c2)cc1 [5c, (S)-((2-oxo-2H-chromen-7-yloxy)carbonyl) methyl 2-(4-isobutylphenyl) propanoate]	1.31 ± 0.07	53.71%	4.22 ± 0.04 mm	4.09%	4.05 ± 0.02 mm	12.14%	3.80 ± 0.04 mm	21.64%	3.60 ± 0.04 mm	28.99%	98.35 ± 0.05 °F	97.65 ± 0.15 °F	97.25 ± 0.08 ^ns °F	102.1 ± 0.96 °F	98.95 ± 0.04 °F	18.25 ± 0.85	50.94%	Ulcer Index (Mean±SEM) [1]: 1.61 ± 0.58; Inhibition of platelet aggregation [2]: most potent inhibitory effects; Inflammation at 0 h (paw thickness), Mean ± SEM ([4]; 0 h after egg albumin): 4.60 ± 0.33 mm; Inflammation at 1 h (paw thickness), Mean ± SEM ([4]; 1 h after egg albumin): 3.12 ± 0.06 mm; Percent inhibition of paw edema at 1 h ([4]; 1 h after egg albumin, vs control): 29.09%; Inflammation at 2 h (paw thickness), Mean ± SEM ([4]; 2 h after egg albumin): 3.02 ± 0.06 mm; Percent inhibition of paw edema at 2 h ([4]; 2 h after egg albumin, vs control): 37.08%; Inflammation at 3 h (paw thickness), Mean ± SEM ([4]; 3 h after egg albumin): 2.92 ± 0.07 mm; Percent inhibition of paw edema at 3 h ([4]; 3 h after egg albumin, vs control): 44.06%; Inflammation at 0 h (paw thickness), Mean ± SEM ([5]; 0 h after carrageenan): 4.32 ± 0.04 mm
CC(C)Cc1ccc([C@H](C)C(=O)O)cc1 [Dexibuprofen, S-(+)-ibuprofen, reference compound]	1.60 ± 0.22	43.46%	4.35 ± 0.06 mm	1.1%	4.07 ± 0.02 mm	11.71%	3.90 ± 0.04 mm	19.58%	3.75 ± 0.06 mm	26.03%	95.25 ± 0.37 ^ns °F	95.02 ± 0.35 °F	94.97 ± 0.31 °F	95.77 ± 0.26 °F	95.20 ± 0.21 °F	17.06 ± 1.08	54.12%	–
